Legend:
Format in all cases: in vivo
test plants [1] = assay: Example B2 herbicidal action, pre-emergence, overall statement on the test plants; details: Example B2 protocol, rate not stated, result in words
Protocol: (§1) Seeds of a variety of test species were sown in standard soil in pots. After cultivation for one day (pre-emergence) or after 8 days cultivation (post-emergence) under controlled conditions in a glasshouse (at 24/16° C., day/night; 14 hours light; 65% humidity), the plants were sprayed with an aqueous spray solution derived from the formulation of the technical active ingredient in acetone/water (50:50) solution containing 0.5% Tween 20 (polyoxyethelyene sorbitan monolaurate, CAS RN 9005-64-5). The test plants were then grown in a glasshouse under controlled conditions in a glasshouse (at 24/16° C., day/night; 14 hours light; 65% humidity) and watered twice daily. After 13 days, the test was evaluated (10=total damage to plant; 0=no damage to plant).

Amaranthus retroflexus [2] = assay: Example B2 herbicidal action, post-emergence, pots in glasshouse; details: evaluated after 13 days, 10=total damage to plant, 0=no damage to plant
Protocol: as §1

Echinochloa crus-galli = assay: as above; details: evaluated after 13 days, 10=total damage to plant, 0=no damage to plant
Protocol: as §1

Ipomea hederaceae = assay: as above; details: evaluated after 13 days, 10=total damage to plant, 0=no damage to plant
Protocol: as §1

Setaria faberi = assay: as above; details: evaluated after 13 days, 10=total damage to plant, 0=no damage to plant
Protocol: as §1

Solanum nigrum [3] = assay: as above; details: evaluated after 13 days, 10=total damage to plant, 0=no damage to plant
Protocol: as §1

Amaranthus retroflexus [4] = assay: Example B1 herbicidal action, post-emergence, seed trays in climatic chamber; details: 1000 g/ha, evaluated after 9 days, 10=total damage to plant, 0=no damage to plant
Protocol: (§2) Seeds of a variety of test species were sown in sterilised standard soil in seed trays each having 96 cells. After cultivation for 8 to 9 days cultivation (post-emergence) under controlled conditions in a climatic chamber (cultivation at 23/17° C., day/night; 13 hours light; 50-60% humidity), the plants were treated with an aqueous spray solution of 1000 mg/l of the active ingredient dissolved in 10% DMSO (dimethyl sulfoxide, CAS RN 67-68-5) as a solvent, equivalent to 1000 g/ha. The plants were grown in the climatic chamber after application at (24/19° C., day/night; 13 hours light; 50-60% humidity) and watered twice daily. After 9 days until the test was evaluated (10=total damage to plant, 0=no damage to plant)

Nasturtium officinale = assay: as above; details: 1000 g/ha, evaluated after 9 days, 10=total damage to plant, 0=no damage to plant
Protocol: as §2

Solanum nigrum [5] = assay: as above; details: 1000 g/ha, evaluated after 9 days, 10=total damage to plant, 0=no damage to plant
Protocol: as §2

Stellaria media = assay: as above; details: 1000 g/ha, evaluated after 9 days, 10=total damage to plant, 0=no damage to plant
Protocol: as §2

test plants [6] = assay: Example B2 herbicidal action, post-emergence, overall statement on the test plants; details: Example B2 protocol, rate not stated, result in words
Protocol: as §1

Row | Compound | damage to the test plants (test plants [1]) | AMARE, damage to plant (Amaranthus retroflexus [2]; 1000 g/ha) | ECHCG, damage to plant (Echinochloa crus-galli; 1000 g/ha) | IPOHE, damage to plant (Ipomea hederaceae; 1000 g/ha) | SETFA, damage to plant (Setaria faberi; 1000 g/ha) | SOLNI, damage to plant (Solanum nigrum [3]; 1000 g/ha) | other results
1 | CC(C)(C)C(=O)Oc1c(-c2c(Cl)cncc2Cl)c(=O)[nH]c2nccnc12 [Compound A8, 2,2-Dimethyl-propionic acid 7-(3,5-dichloro-pyrid-4-yl)-6-oxo-5,6-dihydro-pyrido[2,3-b]pyrazin-8-yl ester] | little or no damage | 0 | 0 | 1 | 0 | 1 | 
2 | O=c1[nH]c2nccnc2c(O)c1-c1ccc(Cl)nc1Cl [Compound A13, 7-(2,6-dichloro-pyrid-3-yl)-8-hydroxy-5H-pyrido[2,3-b]pyrazin-6-one] | little or no damage | 6 | 6 | 6 | 6 | 5 | 
3 | Cn1c(=O)c(-c2ccc(Cl)nc2Cl)c(OC(=O)C(C)(C)C)c2nccnc21 [Compound A15, 2,2-Dimethyl-propionic acid 7-(2,6-dichloro-pyrid-3-yl)-5-methyl-6-oxo-5,6-dihydro-pyrido[2,3-b]pyrazin-8-yl ester] | little or no damage |  |  |  |  |  | AMARE, damage to plant (Amaranthus retroflexus [2]; 250 g/ha): 2; ECHCG, damage to plant (Echinochloa crus-galli; 250 g/ha): 3; IPOHE, damage to plant (Ipomea hederaceae; 250 g/ha): 4; SETFA, damage to plant (Setaria faberi; 250 g/ha): 0; SOLNI, damage to plant (Solanum nigrum [3]; 250 g/ha): 4
4 | O=c1[nH]c2nccnc2c(O)c1-c1cc(Cl)sc1Cl [Compound B12] |  |  |  |  |  |  | AMARE, damage to plant (Amaranthus retroflexus [4]): 6; NAAOF, damage to plant (Nasturtium officinale): 0; SOLNI, damage to plant (Solanum nigrum [5]): 0; STEME, damage to plant (Stellaria media): 0
5 | CC(C)C(=O)Oc1c(-c2c(C(F)(F)F)nn(C)c2OC(F)F)c(=O)[nH]c2nccnc12 [Compound B23, isobutyric acid 7-(5-difluoromethoxy-1-methyl-3-trifluoromethyl-1H-pyrazol-4-yl)-6-oxo-5,6-dihydro-pyrido[2,3-b]pyrazin-8-yl ester] | little or no damage |  |  |  |  |  | AMARE, damage to plant (Amaranthus retroflexus [2]; 250 g/ha): 3; ECHCG, damage to plant (Echinochloa crus-galli; 250 g/ha): 2; IPOHE, damage to plant (Ipomea hederaceae; 250 g/ha): 2; SETFA, damage to plant (Setaria faberi; 250 g/ha): 4; SOLNI, damage to plant (Solanum nigrum [3]; 250 g/ha): 1
6 | Cn1nc(-c2c(O)c3nccnc3[nH]c2=O)c(C(F)(F)F)n1 [Compound B27] | little or no damage | 0 | 1 | 1 | 3 | 0 | 
7 | Cc1cc(-c2c(OC(=O)C(C)C)c3nccnc3[nH]c2=O)n2nc(C)cc2n1 [Compound C4] |  |  |  |  |  |  | AMARE, damage to plant (Amaranthus retroflexus [4]): 0; NAAOF, damage to plant (Nasturtium officinale): 0; SOLNI, damage to plant (Solanum nigrum [5]): 2; STEME, damage to plant (Stellaria media): 0
8 | Cc1nc2cc(-c3c(OC(=O)C(C)(C)C)c4nccnc4[nH]c3=O)ccc2o1 [Compound C5] | little or no damage |  |  |  |  |  | damage to the test plants (test plants [6]): little or no damage
9 | Cc1nc2cc(-c3c(OC(=O)C(C)(C)C)c4nccnc4n(CC(F)F)c3=O)ccc2o1 [Compound C6] | little or no damage | 3 | 0 | 0 | 0 | 2 | 
